According to patent US20230141887A1, “CRYSTAL FORM OF DIAZASPIROPYRAN COMPOUND” (MEDSHINE DISCOVERY INC., priority 2020, published 2023):
≈ marks a conversion by molar mass, not a printed value. Each block holds one compound with its values, some of them ahead of it.

What was measured:
[1] = In vivo pharmacokinetic assay in mice; design: species or system CD-1 male mice; details: male, CD-1, mouse, plasma; for Tmax: read-out: Tmax; for Vd: read-out: Vdss
Protocol: CD-1 male mice aged 7 to 10 weeks were selected. The doses for intravenous and oral administration were 1 mg/kg and 2.5 mg/kg, respectively. The mice were fasted for at least 12 hours before the administration, and resumed feeding 4 hours after the administration. The mice had free access to water throughout the assay period.
(§1) On the day of the assay, the animals in the intravenous group were administrated the corresponding compound through a single injection in the tail vein at an administration volume of 5 mL/kg; the oral group were administrated the corresponding compound through a single intragastric gavage at an administration volume of 10 mL/kg. The animals were weighed before administration, and the administration volume was calculated based on the body weight. The time for collecting samples was: 0.083 (the injection group), 0.25, 0.5, 1, 2, 4, 8, 24 h. About 30 μL of whole blood was collected from the saphenous vein at each time point to prepare plasma for concentration determination by high-performance liquid chromatography-tandem mass spectrometry (LC-MS/MS). All animals were euthanized by CO2 anesthesia after collecting the PK samples at the last time point. The plasma concentrations were processed by non-compartmental model of WinNonlin™ Version 6.3 (Pharsight, Mountain View, Calif.) pharmacokinetic software, and the pharmacokinetic parameters were calculated by the linear logarithm trapezoidal method.

[2] = system: Ba/F3-TEL-FLT3-D835Y subcutaneous allograft tumor; assay: Pharmacodynamics assay of Ba/F3-TEL-FLT3-D835Y cells in mice with subcutaneous allograft tumor; assay type: in vivo; details: for Average tumor volume Day 0: Day 0, before dosing; for % Inhibition rate / Average tumor volume Day 15: Oral, Once a day
Protocol: The efficacy of the assay compounds in the BALB/c nude mouse model of subcutaneous allografts of Ba/F3-TEL-FLT3-D835Y cells was evaluated in vivo.
Ba/F3-TEL-FLT3-D835Y cell line was cultured in 1640 medium supplemented with 10% fetal bovine serum and 1% double antibody at 37° C. and 5% CO2, and passaged twice a week. […].
When the cells in the logarithmic growth phase reached the required number for the assay, the cells were harvested, and centrifuged at 1000 rpm for 5 min. The supernatant was removed. The cells were resuspended in culture medium, and counted using a cell counter. […]. After mixing well, the suspension was placed on ice and aspirated with a 1 ml sterile syringe. 0.2 ml of cell suspension was inoculated subcutaneously in the right armpit of each mouse. That is, each mouse was inoculated with 1×10^6 Ba/F3-TEL-FLT3-D835Y cells. After inoculation, the tumor growth was observed day by day. The mice were randomly grouped according to tumor volume when the average tumor volume reached about 175.77 mm^3. Mice were dosed according to their body weight (10 μL/g).
After the start of dosing, the body weight and tumor size of the mice were measured twice a week. Tumor volume was calculated according to the formula: Tumor volume (mm^3)=½×(a×b^2) (where a represents the long diameter and b represents the short diameter).

[3] = Assay of solubility (37° C., 24 hours stirring, HPLC); assay type: physicochemical
Protocol: Assay method: The crystal form C of the compound of formula (I) was weighed and added to a 4 mL glass vial, and then 2 mL of solvent was added. The mixture was mixed well and a magnet bar was added to the above suspension. The suspension was stirred on a heater with magnetic stirring (37° C., protected from light). After 24 hours of stirring, a sample was taken. The resulting sample solution was quickly centrifuged. The supernatant was diluted to the appropriate multiple, and the concentration was determined by HPLC (unit: mg/mL).

[4] = In vivo pharmacokinetic assay in dogs; design: species or system Male Beagle dogs; details: Oral, 30 mg/kg
Protocol: Male Beagle dogs older than 6 months of age were selected. On the day of the assay, the animals were given the corresponding compound by single injection in the cephalic or saphenous vein in a volume of 1 mL/kg for the intravenous group; and by single gavage in a volume of 5 mL/kg for the oral group. The animals were weighed before administration and the dosing volume of the compound was calculated based on their body weight. About 0.5 mL of whole blood was collected from the cephalic or saphenous vein at each time point to prepare plasma for determination of concentrations by high performance liquid chromatography-tandem mass spectrometry (LC-MS/MS). Plasma concentrations were processed using non-compartment model of WinNonlin™ Version 6.3 or above (Pharsight, Mountain View, Calif.) pharmacokinetic software, and pharmacokinetic parameters were calculated using the linear log trapezoidal method.

[5] = In vivo pharmacokinetic assay in rats; design: species or system SD male rats
Protocol: SD male rats aged 7 to 10 weeks were selected. The rats were fasted for at least 12 hours before the administration, and resumed feeding 4 hours after the administration. The rats had free access to water throughout the assay period.
as §1, with “4, 6,” for “4,”, “200” for “30”, “jugular” for “saphenous”

[6] = system: human acute myeloma MOLM-13 cell line subcutaneous xenograft; assay: Inhibition of Molm-13 subcutaneous xenograft tumor in vivo; design: species or system NOD/SCID female mice; details: for Average tumor volume Day 0: Day 0, before dosing; for % Inhibition rate on day 11 / % Inhibition rate on day 15 / Average tumor volume Day 11 / Average tumor volume Day 15: Oral, Once a day
Protocol: The purpose of this assay is to evaluate the pharmacodynamics of the compounds in the NOD/SCID female mice model of human acute myeloma MOLM-13 cell line subcutaneous xenograft.
MOLM-13 cells were cultured in RPMI-1640 medium containing 10% fetal bovine serum. The MOLM-13 cells were collected in the exponential growth phase, and resuspended in PBS to a suitable concentration for subcutaneous tumor inoculation in […].
The assay mice were inoculated with 5×10^6 MOLM-13 cells resuspended in 0.1 ml of PBS (0.1 ml per mouse) subcutaneously on the right back. Tumor growth was regularly observed. When the tumor grew to an average volume of 98 mm^3, the mice were randomly divided into groups and administered according to tumor size and body weight of the mice.
After the start of administration, the body weight and tumor size of the mice were measured three times a week. The formula for calculating the tumor volume is: tumor volume (mm^3)=½×(a×b^2) (where a represents the long diameter and b represents the short diameter).

[7] = system: human biphenotypic B bone marrow mononuclear leukemia cell MV4-11 subcutaneous xenograft tumor; assay: Inhibition of MV4-11 subcutaneous xenograft tumor in vivo; design: species or system nude mice
Protocol: In this assay, the anti-tumor effect of the compounds was evaluated using a nude mice model of subcutaneous xenograft tumor of human biphenotypic B bone marrow mononuclear leukemia cell MV4-11.
Human biphenotypic B bone marrow mononuclear leukemia cell MV4-11 was cultured in vitro in suspension with a RPMI1640 medium supplemented with 10% fetal bovine serum, 100 U/mL penicillin and 100 μg/mL streptomycin in a 5% CO2 cell incubator at 37° C. Routine passaging was performed twice a week. Cells in the logarithmic growth phase were collected, counted and then used for inoculation.
0.2 mL (1×10^7) of MV4-11 cells (plus matrigel, with a volume ratio of 1:1) were inoculated subcutaneously on the right back of each mouse. The grouping and dosing were started when the average tumor volume reached about 140-200 mm^3.
The diameter of the tumor was measured with vernier calipers twice a week. The formula for calculating the tumor volume is: V=0.5a×b^2, where a and b represent the long and short diameters of the tumor, respectively.

[8] = Oral administration (2.5 mg/kg)
[9] = male, SD, rat, plasma, Oral, 2.5 mg/kg
[10] = male, SD, rat, plasma, iv, Injection, 1 mg/kg

AUC(0-t) [1, 8]: 0.0745 µM·h
Cmax [1, 8]: 13.4 nM
bioavailability [1, 8]: 7.39%
half-life [1, 8]: 7.57 h
Tmax [1, 8]: 1 h
AUC(0-t) ([1]; iv, Injection (1 mg/kg)): 0.403 µM·h
clearance ([1]; iv, Injection (1 mg/kg)): 73.4 mL/min/kg
half-life ([1]; iv, Injection (1 mg/kg)): 2.13 h
Vd ([1]; iv, Injection (1 mg/kg)): 8.93 L/kg
Structure (SMILES): CCc1nc(C(N)=O)c(Nc2ccc(N3CCC4(CCN(C)CC4)CC3)c(OC)c2)nc1NC1CCOCC1 [Compound A]

Structure (SMILES): CCc1nc(C(N)=O)c(Nc2ccc(N3CCC4(CCN(C)CC4)CC3)c(C)c2)nc1NC1CCOCC1
Average tumor volume Day 0 ([2]; 1 mg/kg group): 176 ± 2 mm^3
% Inhibition rate ([2]; 1 mg/kg): 62%
Average tumor volume Day 15 ([2]; 1 mg/kg): 1160 ± 99 mm^3
Average tumor volume Day 0 ([2]; 3 mg/kg group): 177 ± 2 mm^3
% Inhibition rate ([2]; 3 mg/kg): 80%
Average tumor volume Day 15 ([2]; 3 mg/kg): 683 ± 45 mm^3
Average tumor volume Day 0 ([2]; 6 mg/kg group): 177 ± 2 mm^3
% Inhibition rate ([2]; 6 mg/kg): 103%
Average tumor volume Day 15 ([2]; 6 mg/kg): 77 ± 13 mm^3
Solubility ([3]; Biological medium FaSSIF, 37° C.): 110 µg/mL (≈ 211 µM)
Solubility ([3]; Biological medium FeSSIF, 37° C.): 1110 µg/mL (≈ 2130 µM)
Solubility ([3]; Biological medium SGF, 37° C.): 1490 µg/mL (≈ 2860 µM)
Solubility ([3]; Buffer solution pH 1.0, 37° C.): >10000 µg/mL
Solubility ([3]; Buffer solution pH 3.8, 37° C.): >10000 µg/mL
Solubility ([3]; Buffer solution pH 4.5, 37° C.): >10000 µg/mL
Solubility ([3]; Buffer solution pH 5.5, 37° C.): 810 µg/mL (≈ 1550 µM)
Cmax [4]: 527 nM
F% [4]: 41.0%
Tmax [4]: 9.00 h
Cmax ([5]; Oral, 20 mg/kg): 483 nM
F% ([5]; Oral, 20 mg/kg): 93%
Tmax ([5]; Oral, 20 mg/kg): 7.00 h

Structure (SMILES): CCc1nc(C(N)=O)c(Nc2ccc(N3CCC4(CCN(C)CC4)CC3)c(C)c2)nc1NC1CCOCC1 [Compound of formula (I)]
Average tumor volume Day 0 ([6]; 15 mg/kg group): 98.34 mm^3
% Inhibition rate on day 11 ([6]; 15 mg/kg): 92%
% Inhibition rate on day 15 ([6]; 15 mg/kg): 94%
Average tumor volume Day 11 ([6]; 15 mg/kg): 156.85 mm^3
Average tumor volume Day 15 ([6]; 15 mg/kg): 223.09 mm^3
Average tumor volume Day 0 ([6]; 50 mg/kg group): 98.05 mm^3
% Inhibition rate on day 11 ([6]; 50 mg/kg): 106%
% Inhibition rate on day 15 ([6]; 50 mg/kg): 104%
Average tumor volume Day 11 ([6]; 50 mg/kg): 53.08 mm^3
Average tumor volume Day 15 ([6]; 50 mg/kg): 0 mm^3

AUC(0-t) [1, 8]: 0.501 µM·h
Cmax [1, 8]: 85.3 nM
bioavailability [1, 8]: 33.1%
half-life [1, 8]: 5.59 h
Tmax [1, 8]: 1 h
AUC(0-t) ([1]; iv, Injection (1 mg/kg)): 0.605 µM·h
clearance ([1]; iv, Injection (1 mg/kg)): 46.7 mL/min/kg
half-life ([1]; iv, Injection (1 mg/kg)): 2.09 h
Vd ([1]; iv, Injection (1 mg/kg)): 7.47 L/kg
AUC(0-t) [5, 9]: 0.361 µM·h
Cmax [5, 9]: 29.1 nM
bioavailability [5, 9]: 24.6%
Tmax ([5]; male, SD, rat, plasma, Oral, 2.5 mg/kg, read-out: Tmax): 6 h
AUC(0-t) [5, 10]: 0.587 µM·h
clearance [5, 10]: 44 mL/min/kg
half-life [5, 10]: 2.73 h
Vd ([5]; male, SD, rat, plasma, iv, Injection, 1 mg/kg, read-out: Vdss): 10.2 L/kg
Structure (SMILES): CCc1nc(C(N)=O)c(Nc2ccc(N3CCC(N4CCN(C)CC4)CC3)c(OC)c2)nc1NC1CCOCC1 [Compound B, reference compound]
Average tumor volume Day 0 ([2]; 3 mg/kg group): 176 ± 2 mm^3
% Inhibition rate ([2]; 3 mg/kg): 68%
Average tumor volume Day 15 ([2]; 3 mg/kg): 993 ± 79 mm^3
% Inhibition rate on day 14 ([7]; 1.5 mg/kg, Oral, Once a day): 57.7%
Average tumor volume Day 14 ([7]; 1.5 mg/kg, Oral, Once a day, Day 14): 431 mm^3
Average tumor volume Day 0 ([7]; Day 0, one value for all groups, before dosing): 149 mm^3
Average tumor volume Day 0 ([6]; 15 mg/kg group): 98.02 mm^3
% Inhibition rate on day 11 ([6]; 15 mg/kg): 59%
% Inhibition rate on day 15 ([6]; 15 mg/kg): 79%
Average tumor volume Day 11 ([6]; 15 mg/kg): 401.07 mm^3
Average tumor volume Day 15 ([6]; 15 mg/kg): 566.95 mm^3
